Earlier results as cited in US20100241197A1, “METHODS OF USING NITROXIDES IN CONJUNCTION WITH PHOTOSENSITIZERS AND SONOSENSITIZERS” (Mitos Pharmaceuticals, Inc., priority 2003, published 2010).
Read-outs that look alike come from different tables or passages of the source.

Assays:
[1] = relative to PHOTOFRIN
tumor = conditions: in vivo
[2] = not given; remark: listed apart in the source

For `Oc1cccc(-c2c3nc(c(-c4cccc(O)c4)c4ccc([nH]4)c(-c4cccc(O)c4)c4nc(c(-c5cccc(O)c5)c5ccc2[nH]5)CC4)C=C3)c1` [m-THPC, Meta-tetra hydroxyphenyl chlorin], the “skin photosensitivity compared with PHOTOFRIN” value [1] is given as “only slightly less”.
In the case of “benzoporphyrin derivative mono-acid A [BPD]”, the extinction coefficient (absorbance peak at 650 nm) is listed as 34 000 M-1 cm-1 and the tumor accumulation (tumor) is listed as “rapid tumor accumulation”.
In the case of `CCOC(=O)C1=Cc2c3nc(cc4nc(cc5[n-]c(cc6[n-]c2c(C)c6CC)c(C)c5CC)C(C)=C4CC)[C@@H](C)[C@]13CC.[Cl-].[Cl-].[Sn]` (racemic) [SnET2, tin etiopurpurin], the extinction coefficient (at 700 nm) is given as 40 000 M-1 cm-1.
For `C=Cc1c(C)c2cc3nc(c(CC(=O)N[C@@H](CC(=O)[O-])C(=O)[O-])c4[nH]c(cc5nc(cc1[nH]2)C(C)=C5CC)c(C)c4C(=O)[O-])[C@@H](CCC(=O)[O-])[C@@H]3C.[Na+].[Na+].[Na+].[Na+]` [Npe6, Mono-L-aspartyl chlorin e6], the extinction coefficient (absorbance peak at 654 nm) is listed as 40 000 M-1 cm-1 and the “solubility in water / aqueous solutions” value [2] is listed as “highly water soluble”.
